Measured values as given in US20240358693A1, “METHODS OF TREATING PAIN” (Aisa Pharma, Inc., priority 2023, published 2024).

Columns and labels:
participants with SSc-RP [1] = assay: Pain score recorded during weekly RP attacks (11-point Likert scale); type: in vivo, human; settings: for Average Pain Score [Mean (SD)]: on treatment, N = 24
From the text: The absolute change in average pain score (11-point Likert scale) of weekly RP attacks from baseline to the end of each Dosing Period will be a secondary outcome variable. The sponsor-developed participant-informed diary will be used to record data. The average pain score of weekly RP attacks is defined as the total pain scores divided by total number of RP attacks within the last 7 days of each dosing period. Average of the last 7 days of screening assessments will be used as baseline for the analysis of all periods. The variable will be calculated similar to frequency data as before.

participants with SSc-RP [2] = assay: Adverse events and serious adverse events (safety, tolerability); type: in vivo
From the text: An AE is any event, side effect, or other untoward medical occurrence that occurs in conjunction with the use of a medicinal product in humans, whether or not considered to have a causal relationship to this treatment.
Severity of AEs will be graded by the Investigator as one of: • Mild (Grade 1): A type of AE that is usually transient and may require only minimal treatment or therapeutic intervention.
An SAE is an AE occurring during any study phase (i.e., baseline, treatment, washout, or follow-up), and at any dose of the study drug (active or placebo), that fulfills one or more of the following: • Results in death • It is immediately life-threatening • It requires in participant hospitalization or prolongation of existing hospitalization • It results in persistent or significant disability or incapacity • Results in a congenital abnormality or birth defect • It is an important medical event that may jeopardize the participant or may require medical intervention to prevent one of the outcomes listed above.
Treatment-emergent AEs (TEAEs) are defined as AEs that occur or worsen after the dose of study drug. If the timing of the start of an AE could not be determined unambiguously from the start or end dates provided, it will be assumed to be a TEAE. An AE is considered related if the relationship to either of the study drug has been indicated as possibly or probably or definite related by the investigator. An AE leading to study withdrawal is defined as an AE that cause a subject early terminated from the study. AEs will be identified as emerging in the following parts: • TEAEs for Part A will be those that started during Part A (i.e., from the first dose in Part A to end of follow up of Part A). • TEAEs for Part B will be those that started during Part B (i.e., from the first dose in Part B to end of follow-up of Part B).
Adverse events were coded using the most current version of the MedDRA® Version 22.0 or higher. The analysis of AEs was based on the concept of treatment emergent AEs. Treatment emergent AEs were tabulated by treatment group and included the number of participants for whom the event occurred, the severity, and relationship to study drug. Treatment emergent AEs (TEAEs) leading to discontinuation and SAEs with onset after the start of study drug were also summarized. All AEs and SAEs (including those with onset or worsening before the start of study drug) through the end of the study were listed.

COCCOC(=O)C1=C(C)NC(C)=C(C(=O)OC/C=C/c2ccccc2)C1c1cccc([N+](=O)[O-])c1 (centres unmarked) [Cilnidipine, cilnidipine]
Average Pain Score, Change From Baseline, Mean (participants with SSc-RP [1]; Cilnidipine 10 mg (n = 4)): 0.47 | Average Pain Score, Percent Change from Baseline, Mean (participants with SSc-RP [1]; Cilnidipine 10 mg (n = 4)): 11.76% | Average Pain Score [Mean (SD)] (participants with SSc-RP [1]; Cilnidipine 10 mg (n = 4)): 2.82 (2.268) | Average Pain Score [Mean (SD)] (participants with SSc-RP [1]; Cilnidipine 20 mg (n = 3)): 1.28 (1.993) | Average Pain Score, Change From Baseline, Mean (participants with SSc-RP [1]; Cilnidipine (20 mg) (n = 3)): −0.47 | Average Pain Score, Percent Change from Baseline, Mean (participants with SSc-RP [1]; Cilnidipine (20 mg) (n = 3)): −26.89% | Average Raynaud's Pain (participants with SSc-RP [1]; Cilnidipine (20 mg) (n = 3)): 12% | Mean pain level at baseline (participants with SSc-RP [1]; Cilnidipine (20 mg) (n = 3)): 2.3 | Mean percent change in pain score from baseline (participants with SSc-RP [1]; Cilnidipine (20 mg) (n = 3)): −11.8% | Average Raynaud's Pain (participants with SSc-RP [1]; Pooled Cilnidipine (n = 7)): −27% | Safety: number of AE (participants with SSc-RP [2]; Cilnidipine 20 mg, HA-mild, n = 8): 1AE (HA-mild; 1 | Safety: withdrawals (participants with SSc-RP [2]; Cilnidipine 20 mg, n = 8): 1AE (HA-mild; 1 | Safety: number of AE (participants with SSc-RP [2]; Pooled Cilnidipine, in combo with T, n = 9): 1AE (in combo with T); | Safety: withdrawals (participants with SSc-RP [2]; Pooled Cilnidipine, n = 9): no withdrawals | incidence of Adverse Events / overall adverse event rate (participants with SSc-RP [2]; all patients who received any dose of cilnidipine (n=17)): 17% | tolerability (participants with SSc-RP [2]; cilnidipine 10 mg and 20 mg, alone or in combination with tadalafil): well tolerated | severity grade of adverse events reported (participants with SSc-RP [2]; patients treated with cilnidipine): only mild (Grade 1) | Safety: grade of Adverse Events (AEs) (participants with SSc-RP [2]; summary of data (Table S)): Grade 1 Adverse | Safety: treatment D/Cs (discontinuations) (participants with SSc-RP [2]; summary of data (Table S)): No treatment D/Cs

CN1CC(=O)N2[C@H](c3ccc4c(c3)OCO4)c3[nH]c4ccccc4c3C[C@@H]2C1=O [Tadalafil, tadalafil]
Average Pain Score, Change From Baseline, Mean (participants with SSc-RP [1]; Tadalafil 5 mg (n = 4)): 0.37 | Average Pain Score, Percent Change from Baseline, Mean (participants with SSc-RP [1]; Tadalafil 5 mg (n = 4)): 17.20% | Average Pain Score [Mean (SD)] (participants with SSc-RP [1]; Tadalafil 5 mg (n = 4)): 5.84 (4.768) | Safety: worst AE by group (participants with SSc-RP [2]; in vivo): Worst AE in tadalafil
